Measured values reported in PubChem BioAssay (NCI).
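Exposure lasted 48 hours, with cells grown in 96-well plates and compounds tested at five concentrations. Definition used: TGI = concentration required for complete inhibition of growth.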

Columns and labels:
Assay in all cases: NCI anticancer screen, dose series, 48 h
A498 renal = tested on: A498 renal
NCI-H23 lung = tested on: NCI-H23 lung
OVCAR-4 ovarian = tested on: OVCAR-4 ovarian
SF-295 CNS = tested on: SF-295 CNS
HT29 colon = tested on: HT29 colon
SK-OV-3 ovarian = tested on: SK-OV-3 ovarian
HCC-2998 colon = tested on: HCC-2998 colon
U251 CNS = tested on: U251 CNS
TK-10 renal = tested on: TK-10 renal
IGROV1 ovarian = tested on: IGROV1 ovarian
NCI-H522 lung = tested on: NCI-H522 lung
SR leukemia = tested on: SR leukemia
PC-3 prostate = tested on: PC-3 prostate
MDA-N = tested on: MDA-N
SW-620 colon = tested on: SW-620 colon
RPMI-8226 leukemia = tested on: RPMI-8226 leukemia
HOP-92 NSCLC = tested on: HOP-92 NSCLC
OVCAR-5 ovarian = tested on: OVCAR-5 ovarian
MDA-MB-231 breast = tested on: MDA-MB-231 breast
MOLT-4 leukemia = tested on: MOLT-4 leukemia
T-47D breast = tested on: T-47D breast
M14 melanoma = tested on: M14 melanoma
LOX IMVI melanoma = tested on: LOX IMVI melanoma
EKVX NSCLC = tested on: EKVX NSCLC
A549 NSCLC = tested on: A549 NSCLC
UO-31 renal = tested on: UO-31 renal
SK-MEL-2 melanoma = tested on: SK-MEL-2 melanoma
SK-MEL-5 melanoma = tested on: SK-MEL-5 melanoma
SN12C renal = tested on: SN12C renal
NCI-H460 lung = tested on: NCI-H460 lung
HOP-62 NSCLC = tested on: HOP-62 NSCLC
DU-145 prostate = tested on: DU-145 prostate
K-562 leukemia = tested on: K-562 leukemia
SK-MEL-28 melanoma = tested on: SK-MEL-28 melanoma
786-0 renal = tested on: 786-0 renal
UACC-257 melanoma = tested on: UACC-257 melanoma
KM12 colon = tested on: KM12 colon
OVCAR-3 ovarian = tested on: OVCAR-3 ovarian
HCT-15 colon = tested on: HCT-15 colon
SNB-19 CNS = tested on: SNB-19 CNS
SF-268 CNS = tested on: SF-268 CNS
MDA-MB-435 = tested on: MDA-MB-435
OVCAR-8 ovarian = tested on: OVCAR-8 ovarian
BT-549 breast = tested on: BT-549 breast
SF-539 CNS = tested on: SF-539 CNS
MALME-3M melanoma = tested on: MALME-3M melanoma
HS 578T breast = tested on: HS 578T breast
NCI-H226 lung = tested on: NCI-H226 lung
CCRF-CEM leukemia = tested on: CCRF-CEM leukemia
HCT-116 colon = tested on: HCT-116 colon
COLO 205 colon = tested on: COLO 205 colon
RXF 393 renal = tested on: RXF 393 renal
SNB-75 CNS = tested on: SNB-75 CNS
NCI/ADR-RES ovarian = tested on: NCI/ADR-RES ovarian
ACHN renal = tested on: ACHN renal
UACC-62 melanoma = tested on: UACC-62 melanoma
MCF7 breast = tested on: MCF7 breast
HL-60(TB) leukemia = tested on: HL-60(TB) leukemia
CAKI-1 renal = tested on: CAKI-1 renal

Measured: TGI

CC(=O)ON(C(C)=O)c1ccc(-c2nc3ccccc3s2)cc1
> 67.2 µM: A498 renal
50.4 µM: ACHN renal
27.7 µM: NCI-H226 lung
41.9 µM: HCC-2998 colon
> 53.7 µM: COLO 205 colon
> 79 µM: A549 NSCLC
> 59.9 µM: SW-620 colon
> 81.6 µM: HOP-92 NSCLC
> 91.5 µM: MDA-MB-231 breast
> 88 µM: HS 578T breast
> 79.3 µM: RXF 393 renal
> 55.8 µM: HOP-62 NSCLC
29.4 µM: SF-539 CNS
> 76.4 µM: SF-295 CNS
52.4 µM: HT29 colon
30.7 µM: NCI-H522 lung
> 66.7 µM: LOX IMVI melanoma
48.7 µM: UACC-62 melanoma
67.1 µM: SK-MEL-2 melanoma
65.2 µM: EKVX NSCLC
> 58 µM: OVCAR-8 ovarian
> 83.5 µM: UACC-257 melanoma
33.2 µM: UO-31 renal | KM12 colon
66.7 µM: OVCAR-3 ovarian
36.9 µM: IGROV1 ovarian
39.9 µM: NCI/ADR-RES ovarian
55.4 µM: RPMI-8226 leukemia
> 66.5 µM: T-47D breast
> 57.5 µM: 786-0 renal
> 70.8 µM: SK-MEL-28 melanoma
> 60.9 µM: U251 CNS
> 68.4 µM: HCT-15 colon
> 54.7 µM: HCT-116 colon
89.9 µM: SK-MEL-5 melanoma
> 77.1 µM: DU-145 prostate
98.6 µM: OVCAR-5 ovarian
30.5 µM: MALME-3M melanoma
> 60.3 µM: MDA-MB-435
> 77 µM: MDA-N
49.3 µM: MOLT-4 leukemia
> 90.8 µM: NCI-H23 lung
64 µM: M14 melanoma
> 89.9 µM: SNB-75 CNS
not listed: MCF7 breast | HL-60(TB) leukemia | CAKI-1 renal
> 100 µM: all other assays above

COC(=O)CCc1cc(OC)c(O)c(C(Cc2ccc(OC)c(OC)c2)C(=O)OC)c1 (centres undefined)
not listed: CAKI-1 renal
> 100 µM: all other assays above

COc1cc2c(cc1OC)-c1cc3ccccc3c[n+]1CC2
54.3 µM: MALME-3M melanoma
94.7 µM: HS 578T breast
68.3 µM: NCI-H522 lung
not listed: A498 renal | 786-0 renal | HCT-15 colon | HL-60(TB) leukemia
> 100 µM: all other assays above
